Measurements as given in ChEMBL document CHEMBL1201862, “PubChem BioAssay data set” (2004).
Calls of active or inactive are those of the source.

How the values were obtained:
[1] = molecular target: T1, Mannose-6-phosphate isomerase (Homo sapiens, UniProt P34949); assay: MPI inhibition at elevated mannose 6-phosphate – biochemical, fluorescence intensity, high mannose 6-phosphate, primary screen (AID 1220)
T1 sequence (P34949 whole entry): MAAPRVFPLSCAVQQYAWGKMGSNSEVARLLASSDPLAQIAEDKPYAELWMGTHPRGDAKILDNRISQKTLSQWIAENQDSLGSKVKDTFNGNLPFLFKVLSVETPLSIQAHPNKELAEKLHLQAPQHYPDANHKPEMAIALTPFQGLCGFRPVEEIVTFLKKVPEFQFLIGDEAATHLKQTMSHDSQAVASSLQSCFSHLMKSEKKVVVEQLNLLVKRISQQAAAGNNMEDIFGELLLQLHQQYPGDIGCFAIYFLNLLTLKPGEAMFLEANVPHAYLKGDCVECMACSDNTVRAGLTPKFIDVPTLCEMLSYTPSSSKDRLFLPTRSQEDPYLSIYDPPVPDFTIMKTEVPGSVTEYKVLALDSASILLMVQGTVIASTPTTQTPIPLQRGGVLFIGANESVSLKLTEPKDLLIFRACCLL

HEK293 = assay: EBV LMP1 TES2 canonical NF-kB signalling blockers – cell-based, HEK293, luciferase, cherry-pick, dose response (AID 588343); format: functional; details: Homo sapiens
[2] = molecular target: ATP-dependent molecular chaperone HSP82 (Candida albicans (strain WO-1) (Yeast), UniProt C4YTQ8); assay: steroid-induced GRE reporter decrease in yeast – S. cerevisiae, luminescence, Hsp90 inhibitor project, dose response (AID 2400); format: functional, cell-based;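 further: beta-galactosidase luminescence from glucocorticoid response element reporter as proxy for Hsp90 function; inhibitor potency where signal loss means Hsp90 inhibition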
ATP-dependent molecular chaperone HSP82, sequence (C4YTQ8 whole entry): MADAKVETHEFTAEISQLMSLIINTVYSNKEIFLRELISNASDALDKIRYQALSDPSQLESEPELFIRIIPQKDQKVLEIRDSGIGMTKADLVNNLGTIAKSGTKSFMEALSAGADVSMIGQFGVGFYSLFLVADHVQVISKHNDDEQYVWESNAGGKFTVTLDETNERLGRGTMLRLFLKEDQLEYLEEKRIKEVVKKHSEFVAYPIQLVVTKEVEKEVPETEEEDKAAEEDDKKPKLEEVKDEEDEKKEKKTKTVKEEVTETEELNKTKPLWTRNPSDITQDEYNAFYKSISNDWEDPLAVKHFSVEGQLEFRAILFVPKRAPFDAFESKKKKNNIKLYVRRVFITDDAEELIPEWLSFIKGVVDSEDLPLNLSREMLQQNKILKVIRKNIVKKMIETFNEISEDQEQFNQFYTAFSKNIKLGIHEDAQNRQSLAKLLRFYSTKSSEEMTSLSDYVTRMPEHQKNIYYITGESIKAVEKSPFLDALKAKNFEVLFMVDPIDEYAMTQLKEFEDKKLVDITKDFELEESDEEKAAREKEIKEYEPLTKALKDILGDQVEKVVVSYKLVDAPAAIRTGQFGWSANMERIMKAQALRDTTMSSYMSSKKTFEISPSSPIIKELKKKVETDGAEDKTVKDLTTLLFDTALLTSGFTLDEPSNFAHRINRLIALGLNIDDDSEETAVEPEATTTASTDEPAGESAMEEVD

Cysteine protease ATG4B = molecular target: T2, Cysteine protease ATG4B (Homo sapiens, UniProt Q9Y4P1); assay: autophagin-1 cysteine protease inhibition – biochemical, fluorescence, set 2, dose response (AID 588584); format: functional
T2 sequence (Q9Y4P1 whole entry): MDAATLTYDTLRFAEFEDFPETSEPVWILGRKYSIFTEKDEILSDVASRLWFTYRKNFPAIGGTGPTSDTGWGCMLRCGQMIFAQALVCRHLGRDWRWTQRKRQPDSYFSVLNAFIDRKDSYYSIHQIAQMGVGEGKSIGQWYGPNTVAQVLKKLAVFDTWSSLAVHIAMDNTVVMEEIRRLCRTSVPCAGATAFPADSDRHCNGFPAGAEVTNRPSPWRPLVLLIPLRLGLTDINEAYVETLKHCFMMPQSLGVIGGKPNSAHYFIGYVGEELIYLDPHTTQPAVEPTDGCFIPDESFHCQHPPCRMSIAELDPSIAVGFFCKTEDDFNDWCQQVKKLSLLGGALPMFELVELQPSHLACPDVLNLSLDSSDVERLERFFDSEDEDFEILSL

[3] = fluconazole-exposed Candida albicans growth modulators – fluorescence, retest, confirmation (AID 2467); format: functional, cell-based

Row | SMILES | IC50 [1] | AC50 (HEK293) | EC50 [2] | IC50 (Cysteine protease ATG4B) | EC50 [3]
1 | O=C1CCN2C=Nc3cccc4ccc1c2c34 | > 58 µM (not active) | – | – | – | –
2 | Oc1ccc2ccccc2c1/C=N/Nc1nnc(-c2ncc[nH]2)c2ccccc12 | – | 1.79 µM (active) | 3.23 µM (active) | 5.4 µM (active) | 0.714 µM (active)
